Drawing on patent US8563562B2, “Compounds having antiviral properties” (priority 2008, dated 2013), this text covers EC50 for 17 compounds.

What all share (assay type): cell-based
For one assay, the system named is HIV WT integrase. Nature of the assay: PhenoScreen (Phenosense) assay, single-round luciferase pseudotyped HIV. The following applies: Human immunodeficiency virus 1, read-out: Activity, Phenosense assay, WT. The text has this:
(§1) Monogram Bioscience' PhenoScreen assay allows the evaluation of integrase inhibitors for activity against a variety of HIV variants. The assay uses virus generated from 2 DNA constructs; one containing the HIV LTR, gag and pol regions, as well as a luciferase reporter gene in place of the viral envelope genes, and a second DNA construct containing the amphotrophic murine leukemia virus (A-MLV) envelope gene required to pseudotype virions and render them capable of entry into a target cell. Viruses generated using these constructs by transfection into a producer cell line such as 293T are capable of one-round of infection only. Successful integration events are directly proportional to the levels of luciferase expression 48 h after infection.
(§2) The viral variants chosen by the present inventors to screen integration inhibitors consist of mutations within the viral integrase enzyme known to confer resistance to a number of known integration inhibitors published in the literature. In particular, the viral variants containing the Q148H/G140S double mutation in integrase, and the N155H/E92Q double mutation in integrase, represent two of the more common viruses identified to arise in patients that are failing treatment with Isentress (Raltegravir, MK-0518).

Assay [1] concerns HIV variant E92Q/N155H integrase. Described as above. The following applies: Human immunodeficiency virus 1, read-out: Activity, Phenosense assay, E92Q/N155H.
Excerpt: as §1, §2

For assay [2], the system named is HIV variant G140S/Q148H integrase. The assay is described as above. As to conditions: Human immunodeficiency virus 1, read-out: Activity, Phenosense assay, G140S Q148H.
Excerpt: as §1, §2

Assay [3] deals with HIV variant T125K/F121Y integrase. The assay is described as above. The following applies: Human immunodeficiency virus 1, read-out: Activity, Phenosense assay, T125K F121Y.
Excerpt: as §1, §2

Assay [4] relates to HIV variant T661/S153Y integrase. The assay is described as above. As to conditions: Human immunodeficiency virus 1, read-out: Activity, Phenosense assay, T661 S153Y.
Excerpt: as §1, §2

Assay [5] deals with HIV variant Y143R integrase. The assay is described as above. The following applies: Human immunodeficiency virus 1, read-out: Activity, Phenosense assay, Y143R.
Excerpt: as §1, §2

In assay [6] the test system is HIV-1 reporter virus, Q148H/G140S (QHGS) integrase. The assay can be described thus: Luciferase reporter virus infectivity assay in 293T cells. The following applies: Human immunodeficiency virus 1, HEK-293T, 48 h, read-out: Luciferase assay EC50, QHGS. The text has this: (§3) Infectivity assays using reporter viruses derived from lentiviral vectors capable of a single round of infection were used to determine the activity (EC50) of compounds. The DNA used to generate viruses for infection was the full-length HIV-1 genome which had been envelope-deleted. In addition, a reporter gene (the firefly luciferase gene from Photinus pyralis) was cloned into the nef region of the HIV backbone for ease of assay readout. […]. Culture supernatants containing VSV-G pseudotyped virions were harvested 64 h post transfection, clarified by centrifugation to remove cell debris, and frozen at −70° C. until use.
(§4) HIV integrase was mutated within a shuttle vector (pGEM) containing the majority of the HIV-1 gag and pol sequence using site-directed mutagenesis to generate sequences that are known to confer resistance to published integrase inhibitors. These include but are not limited to mutations such as Q148H/G140S (in table #QHGS), N155H/E92Q (in table #NHEQ), F121Y/T124K (in table FYTK), Y143R (in table #Y143R) and the triple mutant Q148K/G140A/E138A. (in table#QKGAEA). The mutated integrase coding region within the shuttle vector was sequence verified, and then exchanged for the wild-type (WT) coding sequence in the reporter virus DNA backbone.
(§5) 293T cells were plated out at 12000 cells per well in CellView 96-well cell culture plates (Invitrogen) 16 h prior to compound addition. Compounds were preincubated with cells for 4 h at 37° C. prior to the addition of virus sufficient to generate approximately 10000 Luciferase light units (as measured by the Victor Wallace luminometer) upon assaying using the Bright-Glo™ reagent (Promega) according to the manufacturer's instructions at 48 h post infection.

In assay [7] the test system is HIV-1 reporter virus, N155H/E92Q (NHEQ) integrase. The description is as above. As to conditions: Human immunodeficiency virus 1, HEK-293T, 48 h, read-out: Luciferase assay EC50, NHEQ.
Excerpt: as §3, §4, §5

Assay [8] concerns HIV-1 reporter virus, Q148K/G140A/E138A (QKGAEA) integrase. Described as above. The following applies: Human immunodeficiency virus 1, HEK-293T, 48 h, read-out: Luciferase assay EC50, QKGAEA.
Excerpt: as §3, §4, §5

Assay [9] concerns HIV-1 reporter virus, Y143R integrase. Described as above. The following applies: Human immunodeficiency virus 1, HEK-293T, 48 h, read-out: Luciferase assay EC50, Y143R.
Excerpt: as §3, §4, §5

Assay [10] relates to HIV-1 reporter virus, wild-type (WT) integrase. Described as above. As to conditions: Human immunodeficiency virus 1, HEK-293T, 48 h, read-out: Luciferase assay EC50, WT.
Excerpt: as §3, §4, §5

Each structure is given as a SMILES string.

Consider `O=C(NCc1ccc(Cl)c(Cl)c1)c1nc2ccc(N3CCOCC3)cn2c(=O)c1O` [Comparative example 1, reference compound], for which the EC50 with HIV WT integrase is 1 to 100 nM; in assay [1], greater than 10000 nM; in assay [2], greater than 10000 nM.
In the case of `Cc1ccc2nc(-c3ncc(Cc4ccc(F)cc4)s3)c(O)c(=O)n2c1` [Comparative example 2, reference compound], the EC50 in the assay with HIV WT integrase is 100 to 1000 nM; in assay [1], 1000 to 10000 nM; in [2] it was 1000 to 10000 nM; in assay [3], 100 to 1000 nM; in assay [4], 100 to 1000 nM; in assay [5], 100 to 1000 nM.
As to `O=c1c(O)c(-c2ncc(Cc3ccc(F)cc3)[nH]2)nc2c(Br)cc(N3CCOCC3)cn12` [Example 47, 2-(9-Bromo-3-hydroxy-7-morpholin-4-yl-4-oxo-4H-pyrido[1,2-a]pyrimidin-2-yl)-5-(4-fluoro-benzyl)-1H-imidazol-1-ium chloride], the EC50 in assay [6] is 100 to 1000 nM.
For `CC(=O)c1cc(N2CCOCC2)cn2c(=O)c(O)c(-c3ncc(Cc4ccc(F)cc4)s3)nc12` [Example 53, 9-Acetyl-2-[5-(4-fluoro-benzyl)-thiazol-2-yl]-3-hydroxy-7-morpholin-4-yl-pyrido[1,2-a]pyrimidin-4-one], the EC50 in assay [6] was in the range of 100 to 1000 nM.
For the compound `CC(C)N1CCN(c2cc(N3CCOCC3)cn3c(=O)c(O)c(-c4ncc(Cc5ccc(F)cc5)s4)nc23)C1=O` [Example 56, 2-[5-(4-Fluoro-benzyl)-thiazol-2-yl]-3-hydroxy-9-(3-isopropyl-2-oxo-imidazolidin-1-yl)-7-morpholin-4-yl-pyrido[1,2-a]pyrimidin-4-one], the EC50 in [7], in [6], in assay [8], in assay [9] and in assay [10] was 1 to 100 nM each time.
Regarding `CN1CCN(c2cc(N3CCOCC3)cn3c(=O)c(O)c(-c4ncc(Cc5ccc(F)c(Cl)c5)s4)nc23)C1=O` [Example 60, 2-[5-(3-Chloro-4-fluoro-benzyl)-thiazol-2-yl]-3-hydroxy-9-(3-methyl-2-oxo-imidazolidin-1-yl)-7-morpholin-4-yl-pyrido[1,2-a]pyrimidin-4-one], the EC50 in assay [7], in assay [6], in [8], in assay [9] and in [10] was 1 to 100 nM throughout.
Take `CN1CCN(c2cc(N(C)C)cn3c(=O)c(O)c(-c4ncc(Cc5ccc(F)cc5)s4)nc23)C1=O` [Example 70, 7-Dimethylamino-2-[5-(4-fluoro-benzyl)-thiazol-2-yl]-3-hydroxy-9-(3-methyl-2-oxo-imidazolidin-1-yl)-pyrido[1,2-a]pyrimidin-4-one]: the EC50 in [7], in assay [6] and in assay [10] was 1 to 100 nM each time.
Consider `CN1CCN(c2cc(N(C)C)cn3c(=O)c(O)c(-c4ncc(Cc5ccc(F)cc5)[nH]4)nc23)C1=O` [Example 72, 2-(7-(dimethylamino)-3-hydroxy-9-(3-methyl-2-oxoimidazolidin-1-yl)-4-oxo-4H-pyrido[1,2-a]pyrimidin-2-yl)-5-(4-fluorobenzyl)-1H-imidazol-3-ium chloride], for which, in assay [6], the EC50 lay within 100 to 1000 nM.
Consider `CN1CCN(c2cc(N3CCOCC3)cn3c(=O)c(O)c(-c4ncc(Cc5ccc(F)c(Cl)c5)[nH]4)nc23)C1=O` [Example 77, 5-(3-chloro-4-fluorobenzyl)-2-(3-hydroxy-9-(3-methyl-2-oxoimidazolidin-1-yl)-7-morpholino-4-oxo-4H-pyrido[1,2-a]pyrimidin-2-yl)-1H-imidazol-3-ium chloride], for which the EC50 in [7] is 1 to 100 nM; in assay [6] it was 100 to 1000 nM; in assay [10], 1 to 100 nM.
Regarding `CN1CCN(c2cc(N3CCOCC3)cn3c(=O)c(O)c(-c4ncc(Cc5ccc(F)c(F)c5)[nH]4)nc23)C1=O` [Example 79, 5-(3,4-difluorobenzyl)-2-(3-hydroxy-9-(3-methyl-2-oxoimidazolidin-1-yl)-7-morpholino-4-oxo-4H-pyrido[1,2-a]pyrimidin-2-yl)-1H-imidazol-3-ium chloride], the figures for the EC50 in assay [7], in [6] and in [10] were 1 to 100 nM, 100 to 1000 nM and 1 to 100 nM, respectively.
Regarding `O=C1CCCN1c1cc(N2CCOCC2)cn2c(=O)c(O)c(-c3ncc(Cc4ccc(F)cc4)[nH]3)nc12` [Example 83, 5-(4-fluorobenzyl)-2-(3-hydroxy-7-morpholino-4-oxo-9-(2-oxopyrrolidin-1-yl)-4H-pyrido[1,2-a]pyrimidin-2-yl)-1H-imidazol-3-ium chloride], the EC50 in assay [6] is 100 to 1000 nM.
Still for that read-out and setting: under `O=C1OCCN1c1cc(N2CCOCC2)cn2c(=O)c(O)c(-c3ncc(Cc4ccc(F)cc4)[nH]3)nc12` [Example 87, 5-(4-fluorobenzyl)-2-(3-hydroxy-7-morpholino-4-oxo-9-(2-oxooxazolidin-3-yl)-4H-pyrido[1,2-a]pyrimidin-2-yl)-1H-imidazol-3-ium chloride] stands 100 to 1000 nM.
Take `CN1CCN(c2cc(N3CCOCC3)cn3c(=O)c(O)c(-c4ncc(Cc5ccc(F)cc5)[nH]4)nc23)S1(=O)=O` [Example 91, 4-(4-Fluoro-benzyl)-2-[3-hydroxy-9-(5-methyl-1,1-dioxo-116-[1,2,5]thiadiazolidin-2-yl)-7-morpholin-4-yl-4-oxo-4H-pyrido[1,2-a]pyrimidin-2-yl]-3H-imidazol-1-ium; chloride]: the EC50 in assay [7], in assay [6] and in assay [10] was 1 to 100 nM in each case.
With `CN(c1cc(N2CCOCC2)cn2c(=O)c(O)c(-c3ncc(Cc4ccc(F)cc4)[nH]3)nc12)S(C)(=O)=O` [Example 95, 5-(4-fluorobenzyl)-2-(3-hydroxy-9-(N-methylmethylsulfonamido)-7-morpholino-4-oxo-4H-pyrido[1,2-a]pyrimidin-2-yl)-1H-imidazol-3-ium chloride], the EC50 fell in the range of 1 to 100 nM in assay [7], 100 to 1000 nM in assay [6] and 1 to 100 nM in assay [10].
With `O=C1CCCN1c1cc(N2CCOCC2)cn2c(=O)c(O)c(-c3ncc(Cc4ccc(F)cc4)s3)nc12` [Example 97, 2-[5-(4-Fluoro-benzyl)-thiazol-2-yl]-3-hydroxy-7-morpholin-4-yl-9-(2-oxo-pyrrolidin-1-yl)-pyrido[1,2-a]pyrimidin-4-one], the EC50 in assay [6] fell in the range of 100 to 1000 nM.
For the compound `O=c1c(O)c(-c2ncc(Cc3ccc(Cl)c(Cl)c3)s2)nc2c(N3CCCS3(=O)=O)cc(N3CCOCC3)cn12` [Example 108, 2-[5-(3,4-Dichloro-benzyl)-thiazol-2-yl]-9-(1,1-dioxo-116-isothiazolidin-2-yl)-3-hydroxy-7-morpholin-4-yl-pyrido[1,2-a]pyrimidin-4-one], the EC50 in [6] lay within 100 to 1000 nM; in assay [10] it was 1 to 100 nM.
Consider `CN1CCN(c2cc(N3CCOCC3)cn3c(=O)c(O)c(-c4ncc(Cc5ccc(F)cc5)[nH]4)nc23)C1=O` [Example 109, 5-(4-Fluoro-benzyl)-2-[3-hydroxy-9-(3-methyl-2-oxo-imidazolidin-1-yl)-7-morpholin-4-yl-4-oxo-4H-pyrido[1,2-a]pyrimidin-2-yl]-1H-imidazol-1-ium; chloride], for which the values for the EC50 in [7], in assay [6] and in [10] were 100 to 1000 nM, 100 to 1000 nM and 1 to 100 nM, respectively.
